These results are taken from patent publication US20240294479A1, “POLYMORPHS OF 2-(3,5-DICHLOROPHENYL)-L,3-BENZOXAZOLE-6-CARBOXYLIC ACID” (HONOUR LAB LIMITED, priority 2021, published 2024).

In brackets after ≈: the same amount, converted by molar mass.

Series [1] is described as follows: Solubility of Tafamidis crystalline forms in water at different pH. The class given is physicochemical. As for the experimental part:
However the crystalline Forms of the present invention has water solubility greater than or equal to 3 μg/mL at pH 5 and below.
The solubility of Tafamidis crystallin Form HN3 in water at different pH is as follows: […]

The conditions of series [2]: at pH 5 and below; EMEA scientific discussion; cited from earlier work.

In general, solubility refers to the dissolved amount per volume that the medium holds. Low values mean a poorly soluble substance, high ones a readily soluble substance.

As to `O=C(O)c1ccc2nc(-c3cc(Cl)cc(Cl)c3)oc2c1` [Form HN3, 2-(3,5-dichlorophenyl)-1,3-benzoxazole-6-carboxylic acid], the solubility worked out at 3 µg/mL (≈ 9.74 µM) in series [1] (pH 3, aqueous buffer); 3 µg/mL (≈ 9.74 µM) in series [1] (pH 4, aqueous buffer); 3 µg/mL (≈ 9.74 µM) in series [1] (pH 5, aqueous buffer).

Regarding `O=C(O)c1ccc2nc(-c3cc(Cl)cc(Cl)c3)oc2c1` [Tafamidis (Form 1), 2-(3,5-dichlorophenyl)-1,3-benzoxazole-6-carboxylic acid], the water solubility in series [2] is < 2 µg/mL.
